Reference: patent publication US12076399B2, “Combination therapies for treating cancers” (Cothera Bioscience, Inc., priority 2017, dated 2024)

What was measured:
Experiment in all cases: Ex vivo drug sensitivity test (EdU proliferation, EpCAM+ cells, high-content imaging) on conditionally reprogrammed patient-derived tumor cells
Type in all cases: cell-based, human
[1] = system: patient-derived epithelial tumor cells, colon; conditions: EpCAM and Edu positive readout, AUC concentration
Excerpt: (§1) Surgical specimen from colorectal cancer patients, liver cancer patients, lung cancer patients, pancreatic cancer, gastric cancer patients and breast cancer patients were obtained from the Beijing Cancer Hospital and the Cancer Hospital of Chinese Academy of Medical Science after receiving patient consensus. Patient-derived xenograft tumor specimens were obtained from Nod/SCID mice inoculated with surgical tumor specimen from patients.
(§2) For ex vivo drug sensitivity assays, the tumor cells were isolated from the patient tissue sample or PDX xenograft tumor tissue. Briefly, the tumor tissues were cut into small pieces less than 1 mm in diameter using scissors. The tumor fragments were transferred into a sterile 100-ml triangle glass flask loaded with a magnet stir bar. A 10-15 ml digestion media containing 0.25 U/ml Liberase DH was added into the minced tumor tissues to start enzyme digestion. The enzyme mixture was incubated at 37° C. for 1-2 hours with moderate stirring. The digested tumor tissue was filtered through a 100-μm cell retainer. The filtrates were re-filtered through a 40-μm cell restrainer. The tumor cell clusters retained on the 40-μm cell restrainer was collected, wash twice with HBSS, then re-suspended in a defined growth media supplemented with several stem cell growth factors.
(§3) The tumor cell clusters retained on the 40-μm cell restrainer were collected, wash twice with HBSS, then re-suspended in a defined growth media supplemented with cell growth factors and small molecule inhibitors. The tumor cell clusters were recovered in a defined growth medium overnight. The defined growth medium was StemPro® hESC SFM (defined, serum- and feeder-free medium (SFM)) supplemented with: Nicotinamide, Wnt3A, Noggin (Bone Morphogenetic Protein (BMP) inhibitor), R-spondin-1 (Wnt/β-catenin signaling agonist), and Y27632 (Rho-associated, coiled-coil containing protein kinase (ROCK-1) inhibitor).
(§4) For conditional reprogramming, the recovered CTOSs were dissociated into single cells and seeded in a feeder cell/Rock inhibitor (Y27632) co-culture system at about 3000 cells per well in cell culture plate, and grow at 37 C for 3 days.
(§5) For ex vivo drug testing, the seeded tumor cells were exposed to seven EGFR inhibitors, three MEK 1/2 inhibitors, and three CDK 4/6 inhibitors alone, or a combination of EGFR inhibitor and MEK 1/2 inhibitor, a combination of EGFR inhibitor and CDK 4/6 inhibitor, a combination of MEK 1/2 inhibitor and CDK 4/6 inhibitor, and a triple combination of EGFR inhibitor, MEK 1/2 inhibitor, and a CDK 4/6 inhibitor for 72 hours. The treated tumor cells were re-exposed to the same drug or drug combination with a fresh media change for another 72 hours. All drugs were prepared in DMSO and the final concentration of DMSO in media was 0.1%. The tested concentration of the drug and drug combinations were at relevant AUC concentration (see Table E1).
(§6) Following exposure with drug, the epithelial tumor cells were labeled with 5-ethynyl-2′-deoxyuridine (Edu) to assess the tumor cell proliferation rates. The labeling lasted 24 hours in the presence of drug exposure. In the control group, epithelial tumor cells received no drug exposure with media change, but were similarly labeled with Edu. The labeled tumor cell were fixed and stained with Hoechst 33342 in blocking buffer containing 0.5% Triton X-100 and 3% BSA overnight at 4° C. The tumor cells were incubated with EpCAM antibody (1:4000) for 2 hours at room temperature and rinsed with PBST. Subsequently, the tumor cells were incubated with Alexa FluorR 647 conjugated goat-anti-mouse secondary antibody for 30 minutes at room temperature and rinsed with PBST.
(§7) The incorporated Edu was detected by Click-iT reaction where fixed cells were incubated with a reaction mixture containing 1× Click-iT Edu reaction buffer, CuSO4, and azide-conjugated Alexa Fluor dye in the dark. The stained cells were washed with PBS two times before image acquisition and analysis. […]

[2] = system: patient-derived epithelial tumor cells, gastric; conditions: EpCAM and Edu positive readout, AUC concentration
Excerpt: as §1, §2, §3, §4, §5, §6, §7

[3] = system: patient-derived epithelial tumor cells, pancrea; conditions: patient ZKB-011, pancrea; EpCAM and Edu positive readout; AUC concentration
Excerpt: as §1, §2, §3, §4, §5, §6, §7

| Compound | Inhibition percentage ([1]; patient NYL-040, colon) [%] | MI (Maximum Inhibition Index) ([1]; patient NYL-040, colon) | Inhibition percentage ([1]; patient NYL-053, colon) [%] | MI (Maximum Inhibition Index) ([1]; patient NYL-053, colon) | Inhibition percentage ([1]; patient NYL-109, colon) [%] | MI (Maximum Inhibition Index) ([1]; patient NYL-109, colon) | Inhibition percentage ([1]; patient NYL-113, colon) [%] | MI (Maximum Inhibition Index) ([1]; patient NYL-113, colon) | Inhibition percentage ([1]; patient NYL-132, colon) [%] | MI (Maximum Inhibition Index) ([1]; patient NYL-132, colon) | Inhibition percentage ([1]; patient NYL-149, colon) [%] | MI (Maximum Inhibition Index) ([1]; patient NYL-149, colon) | Inhibition percentage ([1]; patient NYL-161, colon) [%] | MI (Maximum Inhibition Index) ([1]; patient NYL-161, colon) | Inhibition percentage ([1]; patient NYL-170, colon) [%] | MI (Maximum Inhibition Index) ([1]; patient NYL-170, colon) | Inhibition percentage ([1]; patient NYL-HZ-002, colon) [%] | MI (Maximum Inhibition Index) ([1]; patient NYL-HZ-002, colon) | Inhibition percentage ([1]; patient ZKB-007, colon) [%] | MI (Maximum Inhibition Index) ([1]; patient ZKB-007, colon) | further results |
| --- | --- | --- | --- | --- | --- | --- | --- | --- | --- | --- | --- | --- | --- | --- | --- | --- | --- | --- | --- | --- | --- |
| CC(C)(C)c1nc(-c2cccc(NS(=O)(=O)c3c(F)cccc3F)c2F)c(-c2ccnc(N)n2)s1 [D, Dabrafenib] | 7.18 | 1.08 | 9.11 | 1.10 | 34.25 | 1.52 | −3.84 | 0.96 | 29.59 | 1.42 | 75.06 | 4.01 | −6.33 | 0.94 | 52.58 | 2.11 | 0.00 | 0.83 | 0.00 | 0.91 | Inhibition percentage ([1]; patient ZKB-070, colon): 15.53%; MI (Maximum Inhibition Index) ([1]; patient ZKB-070, colon): 1.18; Inhibition percentage ([1]; patient ZKB-171, colon): 15.07%; MI (Maximum Inhibition Index) ([1]; patient ZKB-171, colon): 1.18; Inhibition percentage ([2]; patient NYP-006, gastric): 0.00%; MI (Maximum Inhibition Index) ([2]; patient NYP-006, gastric): 0.47; Inhibition percentage ([2]; patient ZKB-165, gastric): 45.31%; MI (Maximum Inhibition Index) ([2]; patient ZKB-165, gastric): 1.83; Inhibition percentage [3]: 0.00%; MI (Maximum Inhibition Index) [3]: 1.00 |
| CC(=O)c1c(C)c2cnc(Nc3ccc(N4CCNCC4)cn3)nc2n(C2CCCC2)c1=O [P, Palbociclib] | 85.02 | 6.68 | 63.04 | 2.71 | 40.42 | 1.68 | 44.25 | 1.79 | 48.53 | 1.94 | 57.40 | 2.35 | 26.16 | 1.35 | 67.64 | 3.09 | 52.48 | 2.10 | 66.72 | 3.00 | Inhibition percentage ([1]; patient CKY-041, colon): 9.05%; MI (Maximum Inhibition Index) ([1]; patient CKY-041, colon): 1.10; Inhibition percentage ([1]; patient ZKB-070, colon): 77.00%; MI (Maximum Inhibition Index) ([1]; patient ZKB-070, colon): 4.35; Inhibition percentage ([1]; patient ZKB-171, colon): 30.13%; MI (Maximum Inhibition Index) ([1]; patient ZKB-171, colon): 1.43; Inhibition percentage ([2]; patient NYP-006, gastric): 65.36%; MI (Maximum Inhibition Index) ([2]; patient NYP-006, gastric): 2.89; Inhibition percentage ([2]; patient ZKB-165, gastric): 86.45%; MI (Maximum Inhibition Index) ([2]; patient ZKB-165, gastric): 7.38; Inhibition percentage [3]: 85.40%; MI (Maximum Inhibition Index) [3]: 6.85 |
| CC(=O)Nc1cccc(-n2c(=O)n(C3CC3)c(=O)c3c(Nc4ccc(I)cc4F)n(C)c(=O)c(C)c32)c1 [T, Trametinib] | 0.00 | 0.85 | 49.02 | 1.96 | 86.79 | 7.57 | 46.31 | 1.86 | 29.60 | 1.42 | 75.78 | 4.13 | 0.59 | 1.01 | 0.00 | 0.61 | 51.53 | 2.06 | 0.00 | 0.76 | Inhibition percentage ([1]; patient CKY-041, colon): 5.05%; MI (Maximum Inhibition Index) ([1]; patient CKY-041, colon): 1.05; Inhibition percentage ([1]; patient ZKB-070, colon): −34.50%; MI (Maximum Inhibition Index) ([1]; patient ZKB-070, colon): 0.74; Inhibition percentage ([1]; patient ZKB-171, colon): 46.02%; MI (Maximum Inhibition Index) ([1]; patient ZKB-171, colon): 1.85; Inhibition percentage ([2]; patient NYP-006, gastric): 0.00%; MI (Maximum Inhibition Index) ([2]; patient NYP-006, gastric): 0.55; Inhibition percentage ([2]; patient ZKB-165, gastric): 0.00%; MI (Maximum Inhibition Index) ([2]; patient ZKB-165, gastric): 0.60; Inhibition percentage [3]: 7.36%; MI (Maximum Inhibition Index) [3]: 1.08 |
